Reference: ChEMBL document CHEMBL1148961, “10-membered macrolides from the insect pathogenic fungus Cordyceps militaris BCC 2816” (J Nat Prod, 2004)
In brackets after ≈: the same amount, converted by molar mass. Activity calls are given as the source filed them. No cut-off for these calls is given here.

The molecules below were run on Plasmodium falciparum (assay: Antimalarial activity against multidrug-resistant Plasmodium falciparum K1 after 24 hrs by [3H]hypoxanthine uptake).
Type: functional, organism-based

Structure (SMILES) | IC50 [µg/mL]
Nc1ncnc2c1ncn2[C@@H]1O[C@H](CO)C[C@H]1O [CORDYCEPIN] | 4.5 (≈ 17.9 µM)
C[C@H]1[C@@H](O)O[C@@H]2O[C@@]3(C)CC[C@H]4[C@H](C)CC[C@@H]1[C@@]24OO3 [ARTENIMOL] | 0.0012 (≈ 0.00422 µM)

The molecules below were run on Plasmodium falciparum (assay: Antimalarial activity against multidrug-resistant Plasmodium falciparum K1 at <20 ug/mL after 24 hrs by [3H]hypoxanthine uptake).
Type: functional, organism-based

Structure (SMILES) | Activity
C[C@@H]1CCC(=O)C[C@H](O)[C@@H](O)CC(=O)O1 | inactive
CO[C@H]1CC(=O)CC[C@@H](C)OC(=O)C[C@@H]1O | inactive
C[C@@H]1CC[C@@H](O)/C=C/[C@@H](O)CC(=O)O1 | inactive
CO[C@@H]1CC(=O)CC[C@@H](C)OC(=O)C[C@@H]1O | inactive
